Results published in ChEMBL document CHEMBL5233219, “Diarylamides in anticancer drug discovery: A review of pre-clinical and clinical investigations” (Eur J Med Chem, 2020).

Assays:
OVCAR-3 = experiment: Antiproliferative activity against human OVCAR-3 cells assessed as inhibition of cell growth; assay type: functional, cell-based
HS27 = experiment: Cytotoxicity against human HS27 cells; assay type: functional, cell-based
[1] = target: T1, Macrophage colony-stimulating factor 1 receptor (Homo sapiens, UniProt P07333); experiment: Inhibition of FMS (unknown origin)
SK-OV-3 [2] = experiment: Antiproliferative activity against human SK-OV-3 cells assessed as inhibition of cell growth; assay type: functional, cell-based
[3] = target: T1, Macrophage colony-stimulating factor 1 receptor; experiment: Inhibition of FMS (unknown origin) relative to control; settings: concentration not given here
Macrophage = experiment: Cytotoxicity against human Macrophage cells relative to control; assay type: functional
IGROV-1 = experiment: Antiproliferative activity against human IGROV-1 cells assessed as inhibition of cell growth relative to control; assay type: functional; parameters: scale not given: the % may be the effect or the level left
SK-OV-3 [4] = experiment: Antiproliferative activity against human SK-OV-3 cells assessed as inhibition of cell growth relative to control; assay type: functional; parameters: scale not given: the % may be the effect or the level left
DU-145 = experiment: Antiproliferative activity against human DU-145 cells assessed as inhibition of cell growth; assay type: functional, cell-based
T47D = experiment: Antiproliferative activity against human T47D cells assessed as inhibition of cell growth relative to control; assay type: functional; parameters: scale not given: the % may be the effect or the level left
[5] = Cytotoxicity against human A375P cells; assay type: functional, cell-based
[6] = Antiproliferative activity against human A375P cells; assay type: functional, cell-based
[7] = Cytotoxicity against human HUVEC cells; assay type: toxicity, cell-based
[8] = test system: Panel NCI-60 (60 carcinoma cell lines); experiment: Antiproliferative activity against human Panel NCI-60 (60 carcinoma cell lines) assessed as reduction in cell viability; assay type: functional
OVCAR-5 = experiment: Antiproliferative activity against human OVCAR-5 cells assessed as reduction in cell viability; assay type: functional, cell-based
MOLT-4 = experiment: Anticancer activity against human MOLT-4 cells assessed as inhibition of cell growth; assay type: functional; parameters: scale not given: the % may be the effect or the level left
MDA-MB-468 = experiment: Anticancer activity against human MDA-MB-468 cells assessed as inhibition of cell growth; assay type: functional; parameters: scale not given: the % may be the effect or the level left
MCF7 = experiment: Anticancer activity against human MCF7 cells assessed as inhibition of cell growth; assay type: functional; parameters: scale not given: the % may be the effect or the level left
[9] = Antiproliferative activity against human OVCAR assessed as reduction in cell viability; assay type: functional, cell-based
[10] = test system: Panel NCI-60 (60 carcinoma cell lines); experiment: Antiproliferative activity against human Panel NCI-60 (60 carcinoma cell lines) assessed as reduction in cell viability at 10 uM; assay type: functional
[11] = Antitumor activity against human OVCAR cells implanted in mouse assessed as tumor growth inhibition; assay type: functional
[12] = AUC in mouse at 100 mg/kg, po administered once daily; assay type: ADME, organism-based; parameters: dose 100 mg/kg, route po; settings: in vivo
[13] = Volume of distribution in human; assay type: ADME
[14] = Plasma concentration in mouse at 100 mg/kg, po administered once daily; assay type: ADME, organism-based; settings: in vivo
[15] = Oral bioavailability in mouse at 100 mg/kg administered once daily; assay type: ADME, organism-based; settings: in vivo
[16] = Half life in mouse at 100 mg/kg, po administered once daily; settings: in vivo
[17] = Volume of distribution in mouse at 100 mg/kg, po administered once daily; assay type: ADME, organism-based; settings: in vivo
[18] = Plasma protein binding in mouse at 100 mg/kg, po administered once daily; assay type: ADME, organism-based; settings: read-out: PPB (converted)
SCH = experiment: Antiproliferative activity against human SCH cells assessed as reduction in cell viability; assay type: functional, cell-based
[19] = Cmax in female mouse plasma; assay type: ADME, cell-free
[20] = Oral bioavailability in mouse; assay type: ADME, organism-based; settings: in vivo
[21] = Cmax in mouse plasma; assay type: ADME, cell-free
Cytochrome P450 2C19 = Cytochrome P450 2C19 (Homo sapiens, UniProt P33261); experiment: Inhibition of CYP2C19 (unknown origin); assay type: ADME
[22] = Cmax in male mouse plasma; assay type: ADME, cell-free
Cytochrome P450 1A2 = target: T2, Cytochrome P450 1A2 (Homo sapiens, UniProt P05177); experiment: Inhibition of CYP1A2 (unknown origin); assay type: ADME
T2 sequence (P05177 whole entry): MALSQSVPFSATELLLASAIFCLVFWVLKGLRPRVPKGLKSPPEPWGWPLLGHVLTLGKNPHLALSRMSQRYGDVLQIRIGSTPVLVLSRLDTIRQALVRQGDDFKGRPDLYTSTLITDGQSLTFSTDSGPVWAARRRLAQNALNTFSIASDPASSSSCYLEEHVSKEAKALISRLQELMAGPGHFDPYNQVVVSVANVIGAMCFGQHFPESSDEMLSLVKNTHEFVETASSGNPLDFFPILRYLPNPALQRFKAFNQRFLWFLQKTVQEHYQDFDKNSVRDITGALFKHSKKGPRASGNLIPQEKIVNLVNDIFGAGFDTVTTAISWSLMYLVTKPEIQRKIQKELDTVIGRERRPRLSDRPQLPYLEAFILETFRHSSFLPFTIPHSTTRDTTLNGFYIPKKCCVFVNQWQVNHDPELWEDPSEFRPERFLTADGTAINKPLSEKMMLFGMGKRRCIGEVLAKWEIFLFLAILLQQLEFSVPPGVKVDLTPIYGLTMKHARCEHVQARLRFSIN

[23] = Plasma concentration in mouse at 400 to 600 mg/kg, po administered once daily; assay type: ADME, organism-based; settings: in vivo, dose 400-600 mg/kg
[24] = Inhibition of tyrosine kinase (unknown origin); parameters: species or system Homo sapiens
[25] = Oral bioavailability in mouse at 400 to 600 mg/kg; assay type: ADME, organism-based; settings: in vivo, dose 400-600 mg/kg
[26] = Inhibition of tyrosine kinase (unknown origin) in human LNCaP-abl cells
[27] = AUC in mouse at 400 to 600 mg/kg, po administered once daily; assay type: ADME, organism-based; parameters: route po; settings: in vivo, dose 400-600 mg/kg
Cytochrome P450 2D6 = Cytochrome P450 2D6 (Homo sapiens, UniProt P10635); experiment: Inhibition of CYP2D6 (unknown origin); assay type: ADME
[28] = mouse, in vivo, po
Description: Volume of distribution in mouse at 150 to 400 mg/kg, po administered twice daily

[29] = AUC in mouse at 150 to 400 mg/kg, po administered twice daily; assay type: ADME, organism-based; parameters: route po; settings: in vivo, dose 150-400 mg/kg
[30] = Drug absorption in mouse at 400 mg/kg, po; assay type: ADME, organism-based; settings: in vivo, read-out: Drug absorption
[31] = Half life in human; assay type: ADME
[32] = Plasma protein binding in mouse at 150 to 400 mg/kg, po administered twice daily; assay type: ADME, organism-based; settings: dose 150-400 mg/kg, read-out: PPB (converted)
[33] = Tmax in human; assay type: ADME
[34] = Half life in mouse at 150 to 400 mg/kg, po administered twice daily; assay type: ADME, organism-based; settings: in vivo, dose 150-400 mg/kg
[35] = Plasma concentration in mouse at 150 to 400 mg/kg, po administered twice daily; assay type: ADME, organism-based; settings: in vivo, dose 150-400 mg/kg
[36] = Oral bioavailability in mouse at 150 to 400 mg/kg administered twice daily; assay type: ADME, organism-based; settings: in vivo, dose 150-400 mg/kg
[37] = Drug excretion in rat feces assessed as cumulative amount of unchanged drug excreted at 10 mg/kg, po; assay type: ADME, organism-based; settings: faeces, read-out: Drug excretion

T1 sequence (P07333 whole entry): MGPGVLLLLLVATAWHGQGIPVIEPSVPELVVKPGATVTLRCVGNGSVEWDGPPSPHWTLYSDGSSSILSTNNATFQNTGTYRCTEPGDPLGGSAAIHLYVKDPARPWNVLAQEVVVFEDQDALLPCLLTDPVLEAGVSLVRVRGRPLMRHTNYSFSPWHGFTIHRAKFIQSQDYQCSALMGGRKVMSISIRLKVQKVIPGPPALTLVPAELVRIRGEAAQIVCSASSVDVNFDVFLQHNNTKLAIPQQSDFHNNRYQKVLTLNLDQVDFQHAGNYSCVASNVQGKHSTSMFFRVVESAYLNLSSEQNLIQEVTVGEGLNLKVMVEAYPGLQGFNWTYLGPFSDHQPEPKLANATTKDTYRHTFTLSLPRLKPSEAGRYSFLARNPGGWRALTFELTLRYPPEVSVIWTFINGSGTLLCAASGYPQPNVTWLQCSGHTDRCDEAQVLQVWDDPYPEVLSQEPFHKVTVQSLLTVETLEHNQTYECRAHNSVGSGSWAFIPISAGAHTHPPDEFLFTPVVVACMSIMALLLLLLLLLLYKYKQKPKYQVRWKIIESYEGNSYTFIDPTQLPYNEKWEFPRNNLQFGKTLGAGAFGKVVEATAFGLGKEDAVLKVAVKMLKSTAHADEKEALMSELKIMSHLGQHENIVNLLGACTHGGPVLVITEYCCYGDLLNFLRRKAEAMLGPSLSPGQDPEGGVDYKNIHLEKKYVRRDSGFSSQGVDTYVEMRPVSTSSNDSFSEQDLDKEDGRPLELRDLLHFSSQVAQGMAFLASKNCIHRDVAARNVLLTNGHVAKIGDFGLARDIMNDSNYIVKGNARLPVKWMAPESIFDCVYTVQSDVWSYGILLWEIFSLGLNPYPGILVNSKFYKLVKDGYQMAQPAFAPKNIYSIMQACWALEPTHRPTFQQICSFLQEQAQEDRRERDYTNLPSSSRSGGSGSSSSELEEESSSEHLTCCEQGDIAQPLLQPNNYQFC
Chain of Cytochrome P450 2D6 (P10635 whole entry): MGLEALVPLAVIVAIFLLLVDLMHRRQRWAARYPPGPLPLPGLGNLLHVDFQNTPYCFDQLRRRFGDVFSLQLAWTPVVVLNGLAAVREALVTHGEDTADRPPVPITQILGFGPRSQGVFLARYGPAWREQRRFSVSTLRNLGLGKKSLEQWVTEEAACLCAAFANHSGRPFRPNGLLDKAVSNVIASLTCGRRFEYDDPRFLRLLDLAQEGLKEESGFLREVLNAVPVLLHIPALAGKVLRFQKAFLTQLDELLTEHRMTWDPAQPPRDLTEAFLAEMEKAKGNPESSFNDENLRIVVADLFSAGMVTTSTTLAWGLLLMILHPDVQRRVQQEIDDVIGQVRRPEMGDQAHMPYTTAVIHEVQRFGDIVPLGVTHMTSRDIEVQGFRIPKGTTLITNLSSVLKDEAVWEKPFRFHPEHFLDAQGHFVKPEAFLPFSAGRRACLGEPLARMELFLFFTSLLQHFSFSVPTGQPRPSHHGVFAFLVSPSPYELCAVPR
Chain of Cytochrome P450 2C19 (P33261 whole entry): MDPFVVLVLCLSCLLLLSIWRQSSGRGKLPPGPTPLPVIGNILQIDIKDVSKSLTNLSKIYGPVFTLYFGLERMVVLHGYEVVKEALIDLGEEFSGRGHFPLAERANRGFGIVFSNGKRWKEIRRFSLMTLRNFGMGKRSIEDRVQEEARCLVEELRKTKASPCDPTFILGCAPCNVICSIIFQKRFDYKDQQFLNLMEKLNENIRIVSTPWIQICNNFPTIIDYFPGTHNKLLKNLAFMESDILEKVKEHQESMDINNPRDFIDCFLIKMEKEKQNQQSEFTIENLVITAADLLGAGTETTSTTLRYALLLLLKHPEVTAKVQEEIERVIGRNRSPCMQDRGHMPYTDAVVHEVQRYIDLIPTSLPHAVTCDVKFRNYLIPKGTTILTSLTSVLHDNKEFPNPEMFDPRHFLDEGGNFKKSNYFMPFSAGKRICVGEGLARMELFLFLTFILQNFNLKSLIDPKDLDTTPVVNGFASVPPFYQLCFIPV

O=C(Nc1cccc(-n2ccc3c(NC(=O)c4ccccc4)nccc32)c1)c1ccc(N2CCOCC2)c(C(F)(F)F)c1
IC50 (OVCAR-3): 0.045 µM
IC50 (HS27): 0.3 µM
IC50 [1]: 0.03 µM
IC50 (SK-OV-3 [2]): 3.6 µM
inhibition [3]: 90%
Activity (Macrophage): 52%
Activity (IGROV-1): 90%
Activity (SK-OV-3 [4]): 106.2%
IC50 (DU-145): 0.098 µM
Activity (T47D): 90%

CCN1CCN(Cc2ccc(NC(=O)Nc3ccc(-n4ccc5c(NC(=O)c6ccccc6)nccc54)cc3)cc2C(F)(F)F)CC1
IC50 (HS27): 7.8 µM
IC50 [5]: 0.1 µM

Cc1ccc(NC(=O)Nc2cc(F)cc(C(F)(F)F)c2)cc1Nc1cc(=O)[nH]c(N)n1
IC50 [6]: 0.19 µM

COc1ccc(-c2nc3c(Nc4ccc(NC(=O)c5cccc(Cl)c5)cc4)nc(C)nc3o2)cc1
IC50 [7]: 1.28 µM

Cc1nc(Nc2ccc(NC(=O)c3cccc(Cl)c3)cc2)c2nc(-c3ccc(Cl)cc3)oc2n1
IC50 [7]: 1.31 µM

COc1ccc(-c2nn(-c3ccc(NC(=O)c4ccc(Cl)c(C(F)(F)F)c4)cc3)cc2-c2ccncc2)cc1Cl
Activity [8]: 103.16%
IC50 (OVCAR-5): 1.33 µM

COc1cc2cc3c(nc2cc1OC)CCN3Cc1ccc(NC(=O)c2ccc(Cl)c(C(F)(F)F)c2)cc1
Activity (MOLT-4): 43.19%
Activity (MDA-MB-468): 87.13%
Activity (MCF7): 84.97%

Cc1ccc(NC(=O)Nc2ccc(Cl)nc2)cc1Nc1cc(=O)[nH]c(N)n1
IC50 [6]: 0.19 µM

O=C(Nc1ccc(-n2ccc3c(NC(=O)c4ccccc4)ncnc32)cc1)Nc1cccc(Cl)c1Cl
IC50 [9]: 3.67 µM
Activity [10]: 109.18%
TGI [11]: 1.8 µM

Cc1nc(Nc2ncc(C(=O)Nc3c(C)cccc3Cl)s2)cc(N2CCN(CCO)CC2)n1.O [DASATINIB]
AUC [12]: 0.0488 µg·h/mL
Vd [13]: 2.05 L
Cp [14]: 0.129 µg/mL
bioavailability [15]: 14%
half-life [16]: 3 h
Vd [17]: 2.052 L
fraction unbound [18]: 0.04

Cc1ccc(NC(=O)c2ccc(CN3CCN(C)CC3)cc2)cc1Nc1nccc(-c2cccnc2)n1 [IMATINIB]
IC50 (SCH): 4.7 µM
Cmax [19]: 1.08 µg/mL
bioavailability [20]: 98.3%
Cmax [21]: 0.0019 µg/mL
inhibition (INH) (Cytochrome P450 2C19): 10%
Cmax [22]: 0.921 µg/mL
inhibition (INH) (Cytochrome P450 1A2): 10%
Cp [23]: 0.0037 µg/mL
IC50 [24]: 0.03 µM
bioavailability [25]: 98.3%
IC50 [26]: 0.188 µM
AUC [27]: 24.8 µg·h/mL
inhibition (INH) (Cytochrome P450 2D6): 10%

Cc1cn(-c2cc(NC(=O)c3ccc(C)c(Nc4nccc(-c5cccnc5)n4)c3)cc(C(F)(F)F)c2)cn1 [NILOTINIB]
Vd [28]: 0.55 L/kg
IC50 (SCH): 14.6 µM
AUC [29]: 0.0119 µg·h/mL
Fa [30]: 35%
half-life [31]: 17 h
fraction unbound [32]: 0.02
Tmax [33]: 3 h
half-life [34]: 13 h
IC50 [24]: 0.188 µM
Cp [35]: 0.445 µg/mL
bioavailability [36]: 25%
dose excreted [37]: 69%

CNC(=O)c1cc(Oc2ccc(NC(=O)Nc3ccc(Cl)c(C(F)(F)F)c3)cc2)ccn1 [SORAFENIB]
IC50 (HS27): 7.8 µM
IC50 [5]: 0.095 µM
